Reference: a melting point compilation (Tetko et al.; mined from patent text by program, amines drawn as free bases though some values may be those of a salt)

melting point [°C]	Compound
107 to 108	O=S(=O)(Nc1ccc2c(OCC3(c4cccc(C(F)(F)F)c4)N=CNO3)cccc2c1)C(F)(F)F (stereo not given)
158 to 160	O=C(CC1c2ccccc2C(=O)N1C1CCCCC1)N1CCCCC1 (stereo not given)
93 to 94	c1ccn(-c2nc(COc3ccc(CCCn4ccnc4)cc3)cs2)c1
215 to 221	CS(=O)(=O)c1ncc2cc(-c3ccccc3Cl)c(O)nc2n1
195 to 196	CC(C)(c1ccc(O)cc1)c1ccc(-c2ccc(C(C)(C)c3ccc(O)cc3)cc2)cc1
153 to 155	CCOC(=O)C(C)(C)Oc1cccc2c1C[C@@H](OC)[C@H](O)C2 (relative stereo)
134 to 135	CC(C)(C)NC(=O)[C@@H]1CN(C(=O)OC(C)(C)C)CCN1C(=O)OCc1ccccc1
135 to 137	O=C1CSC(c2cccnc2)N1 (stereo not given)
174 to 175	CN(C)c1ccc(C2(CNC(=O)Nc3ccccc3CCc3cc(C(C)(C)C)c(O)c(C(C)(C)C)c3)CCCC2)cc1
232 to 234	CCCC(=O)c1cc(C(=O)O)c2cc(Cc3ccc(F)cc3)cnc2c1O
165 to 166	COC(=O)CCn1c(=O)n(CCN2CCN(c3ccc(F)cc3)CC2)c(=O)c2cscc21
133 to 137	C#CC1(O)CCC2C3=C(CCC21C)c1ccc(OC)cc1CC3 (stereo not given)
196 to 198	O=c1oc2c(c(O)c1Sc1nc3ccccc3o1)c(=O)n(Cc1ccccc1)c1ccccc21
190	Cn1cncc1C(O)(c1ccc(Cl)cc1)c1ccc2c(c1)c(CCc1cccc(Cl)c1)cc(=O)n2C (stereo not given)
173 to 174	O=[N+]([O-])c1cc2c(c3ccc(S(=O)(=O)NCCO)cc13)C(CCl)CN2 (stereo not given)
57 to 59	CCOC(=O)C(=CNc1ccn(Cc2ccccc2)n1)C(=O)OCC
142 to 143	CS(=O)(=O)c1ccc(Oc2ccc([N+](=O)[O-])c(OCc3ccccc3)c2)cc1
75 to 79	CCCCNC(=O)C1CCNCC1
245 to 247	Cc1nc(-c2nn(-c3ccccc3)c(=O)cc2Oc2ccccc2)n[nH]1
177 to 178	COc1cc(C(=O)N2CCN(C(=O)C3=Cc4cc(C)c(C)cc4OCC3)CC2)cc(OC)c1OC
101	COC(=O)c1ccc(C(=O)c2c(O)cccc2F)cc1
190 to 193	CC(C)(C)c1ccc(CC2OCCN(Cc3ccccc3)C2=O)cc1 (stereo not given)
105 to 106	CCCC(=O)c1ccc(OC)c(C(=O)O)c1
147 to 148	Cc1ccc(-c2ccc(S(N)(=O)=O)cc2)n1-c1ccc(F)cc1
151 to 153	COc1ccc(CN2CCN(CC(=O)N3CC=C(c4cccc(C(F)(F)F)c4)n4ncc(C#N)c43)CC2)cc1

melting point [°C]	Compound
181 to 183	CCCc1nc2c(N)nc3ccccc3c2n1CCC1(O)CCOCC1
140	CC(=O)N1c2ccc(-c3ccc(C#N)cc3)cc2C(Nc2ccc(F)cc2)CC1C (stereo not given)
174 to 176	COc1cc2cnn(CCO)c(=O)c2cc1OC
82.5 to 84.5	CC(=O)NC[C@H]1CN2C(=O)C[C@@H]2O1
202 to 203	Cc1nc(-c2ccc(O)cc2)oc1C
92 to 93	CCOC(=O)C(C(=O)OCC)c1cc(OC)ccc1[N+](=O)[O-]
169	O=C(N[C@H]1C[C@H](C(=O)O)Nc2cc(Cl)cc(Cl)c21)OCc1ccccc1 (relative stereo)
210 to 215	CC(C)OC(=O)Nc1ccc(-c2ccnc3c(C(=O)c4cccs4)cnn23)s1
117 to 118	O=C(O)CCCCCCCCCCC(=O)CCC(=O)O
184 to 187	O=C(O)C(Cc1ccc(O)cc1)NC(=O)C(CS)C(F)(F)F (stereo not given)
81 to 82	CCCCNC(=O)[C@@H](C[C@H](O)[C@@H](N)CC1CCCCCC1)C(C)C
117 to 118	CN(C)C(=O)COc1ccc2c(c1)C[C@@H](NC(=O)OCc1ccccc1)CC2
161 to 162	S=C=Nc1ccc(-c2nc(-c3cccs3)no2)cc1
128 to 129	COc1cc2c(cc1Br)CC(C)OC2c1ccc([N+](=O)[O-])cc1 (stereo not given)
108 to 110	CC(=O)c1cccc(N2CCN(CCCCOc3ccc4ccc(=O)[nH]c4n3)CC2)c1Cl
> 250	CCOCc1nc2c(N)nc3cc(-c4cn[nH]c4)ccc3c2n1CC(C)(C)O
225 to 226	COc1cc(N)c(Cl)cc1C(=O)NN1CCN(Cc2cccs2)CC1
49 to 51	CSC=CC(C)(C)C(=O)O
104 to 105	Cn1nnnc1Cc1ccc(N)cc1
204 to 205	COc1cc2c(c3c1OC(C)(C)C3)C(c1cccc(Nc3cccnc3)c1)=NC(C)(C)C2
98	N#Cc1ccc(C=Cc2ccccn2)cc1
249 to 251	O=C1Nc2cccc(Cl)c2C(=O)N2C=CC[C@@H]12
189 to 190	COc1cccc(C2CC(=O)N(c3ccnc(NC(=O)NCc4ccccn4)c3)C2)c1 (stereo not given)
204 to 206	O=C(O)Cc1c(-c2ccc(Cl)cc2)nn(-c2ccccc2)c1-c1ccc(Cl)cc1
266 to 267	O=C(O)c1ccc(-c2nc(-c3cc(Cl)sc3Cl)cs2)cc1

melting point [°C]	Compound
165 to 167	COc1ccc2c(c1)CN(C=O)N=C2Cc1c(Cl)cncc1Cl
185 to 186	O=C(c1c[nH]c2cc(OCc3ccc(F)cc3)ccc12)C1CSC(c2cccnc2)N1 (stereo not given)
113 to 114	OCCCNc1ccnc(Cl)n1
81 to 83	O=C(Cc1cccnc1)c1ccc(Oc2ccccc2)cc1
129 to 130	Cc1ccc(-c2nc3ccc(CN4CCN(C)CC4)cc3[nH]2)cc1C#Cc1ccc(NC(C)C)nn1
222 to 224	Cn1c(COc2nc(CCC(=O)O)oc2-c2ccccc2)nc2ccccc21
72 to 74	FC(F)(F)c1cc(C(F)(F)F)cc(P(=S)(S)c2cc(C(F)(F)F)cc(C(F)(F)F)c2)c1
184	CC(C)(C)OC(=O)CCc1cc(S(C)(=O)=O)cc(-c2nc(=O)c3ccc(Cl)cc3s2)n1
140 to 142	CCC(O)(Cn1cncn1)c1ccc(Oc2ccc(Cl)cc2)cc1Cl (stereo not given)
59 to 60	CCCCCCc1cc(C(=O)O)c(C)o1
69	CN1CCC(c2c[nH]c3ccc(C(=O)Cc4ccccc4)cc23)CC1
192 to 195	CCOC(=O)c1cn(-c2ccc(F)c(NC(C)(C)C)n2)c2c(Br)c(F)c(F)cc2c1=O
238	CSc1ccc2[nH]c(=O)n(CCN3CCC(Nc4nc5ccccc5n4Cc4ccc(F)cc4)CC3)c(=O)c2c1
107 to 108	COc1cc(COc2nn(-c3ccccc3)cc2/C=C/P(=O)(OC)OC)ccc1OCc1nc(-c2ccco2)oc1C
192 to 193	Cc1ccc(NC(=O)c2ccc(CN3CCN(C)CC3)c(C(F)(F)F)c2)cc1NC(=O)N(C)c1cc(N)ncn1
198 to 200	COc1ccc(C2=NN(C3CCN(S(=O)(=O)c4cccc5c(N(C)C)cccc45)CC3)C(=O)[C@@H]3CC=CC[C@H]23)cc1OC
134 to 135	Nc1cc(C=O)nc(C2CCC2)c1F
156 to 158	Cc1c(NC(=O)c2ccc(-c3ccccc3)c(F)c2)ccc2cc(CN3CCCC3)cnc12
105 to 106	O=Cc1c(C#Cc2ccccc2)sc2ccccc12
220	COc1c(C)c(C(=O)c2ccc3[nH]c(=O)n(N)c(=O)c3c2)n2ccccc12
105 to 108	O=C(Nc1ccccc1)C1=C(C(F)(F)F)S(=O)(=O)CCS1(=O)=O
193	NC(=NO)c1ccc(O)c(O)c1
285 to 287	O=C(Nc1cc(-c2cc(Nc3ccc(N4CCNCC4=O)cn3)c(=O)[nH]n2)ccc1F)c1cc2c(s1)CCCC2
202 to 204	CN1C(O)=C(C(=O)Nc2ccc(Cl)cc2)c2ccsc2S1(=O)=O
131 to 133	CSc1cc(C)nc(SC)c1NC(=O)CCCSc1nc2ccccc2s1

melting point [°C]	Compound
205 to 207	CCc1cc(OCc2ccc(-c3ccccc3-c3nnnn3-c3ccc([N+](=O)[O-])cc3)cc2)c2c(n1)CCCC2
152 to 153	COc1ccccc1CSc1c(O)cc(-c2ccccc2)oc1=O
40 to 41	CCCC(=O)c1ccc(O)c(OC)c1
100 to 101	CC(C)(C)OC(=O)C1CC1c1ccc(-c2ncn(-c3ccc(OC(F)(F)F)cc3)n2)cc1 (stereo not given)
140 to 142	Nc1cnccc1CCCOc1cccnc1Oc1cccc(Cl)c1
138 to 140	CC[C@H](C1CC1)n1cc(Cl)nc(N2CCc3cc(OC)cc(Br)c32)c1=O
104 to 108	CCOC(=O)C(C#N)=Cc1cc(OC)c(OC)c2c1C=CCO2
106 to 108	NCCCCNC(=O)C(=O)NCCCCN
145 to 146	O=C(O)COc1ccc(-c2ccccc2OC2OC(CO)C(O)C(O)C2O)cc1 (stereo not given)
202 to 206	O=C(c1ccc(O)cc1)N1CC=CCC1
88	CCN(CC)C(=O)COc1nc(-c2ccccc2)c2ccccc2n1
184 to 186	Cc1noc(C=Cc2ccccc2O)n1
228 to 231	Cc1nc(NC(=O)c2ccccc2)sc1C(=O)n1ccnc1
130 to 132	COc1ccc(N2C(=O)C(OC(C)=O)C2c2ccccc2Cl)cc1 (stereo not given)
280	O=C(Nc1nccs1)c1c(CO)nc2c(C(F)(F)F)cccc2c1O
160	CNC(=O)Nc1ccc(Oc2cccc(C(F)(F)F)c2)c(Cl)c1
62 to 64	CC(C)(C)OC(=O)N1CCCN(c2ccc(C(C)(C)C)cc2)CC1
165	CSc1cc(C)nc(O)n1
126 to 129	Cn1c(-c2ccc(Cl)cc2)c(C#N)c(Br)c1C(F)(F)F
224	COC(=O)c1cc(C(=O)O)ccc1N
228 to 229	NCC1=C(CCC(=O)O)CC=CC1
> 270	CCCn1c(=O)c2c(nc(C=Cc3ccc(S(=O)(=O)O)cc3)n2C)n(CCC)c1=O
> 300	Cn1c(=O)[nH]c2cc3[nH]c(-c4cccnc4)nc3cc21

Compound	melting point [°C]
OC(CN1CC=C(c2ccc(Cl)cc2)CC1)c1ccc(Cl)cc1 (stereo not given)	152 to 153
Cc1nn(C)c(C)c1NC1=NCCO1	131 to 132
